82 compounds from PubChem BioAssay AID520 (NMMLSC, 2006) can be followed below.

The target in this test is N-formyl peptide receptor 2 (Homo sapiens) (UniProt P25090). The test can be described thus: concentration-dependent FPRL1 ligand displacement – cell-based, FPR counter-screen, fluorescent ligand, dose response (AID 520). The conditions noted are these: FPRL1-expressing cells, fluorescent ligand binding inhibition; for pKi: measured here: FPRL1 binding Ki.

pKi: −log10 of the molar value. The source made the active and inactive calls. No rule for the calls is given here.

N-formyl peptide receptor 2 (Homo sapiens), sequence (P25090 whole entry, looked up): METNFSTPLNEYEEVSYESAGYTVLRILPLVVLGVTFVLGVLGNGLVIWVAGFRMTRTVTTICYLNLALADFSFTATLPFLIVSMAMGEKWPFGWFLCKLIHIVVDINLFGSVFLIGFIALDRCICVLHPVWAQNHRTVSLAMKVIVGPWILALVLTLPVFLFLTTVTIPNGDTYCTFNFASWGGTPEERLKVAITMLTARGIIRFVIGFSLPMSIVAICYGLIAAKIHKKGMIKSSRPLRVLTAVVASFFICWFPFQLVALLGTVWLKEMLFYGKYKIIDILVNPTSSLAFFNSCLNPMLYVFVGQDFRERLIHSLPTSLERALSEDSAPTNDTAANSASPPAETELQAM

Usually IC50 stands for the concentration that inhibits the measured activity by half. One may read the pKi as the negative decadic logarithm of the Ki, by convention in mol/L. Read a low pKi as a high Ki. As for `COc1cccc(C2C(C(=O)c3cc4ccccc4o3)=C(O)C(=O)N2c2cc(C)on2)c1OC` (configuration not stated), the IC50 is > 66.7 µM (inactive) and the pKi was < 4.39.
For the compound `CCOC(=O)c1sc(=S)n2c1[nH]c(=O)c1ccc(C(=O)OC)cc12`, the negative logarithm of the Ki (pKi) is < 4.39.
The same measure, in the same setting: with `COc1ccc2cnn(-c3ccccc3)c(=O)c2c1OC` the figure was < 4.39.
As for `O=C(C1=C(O)C(=O)N(CCc2ccccc2)C1c1cccnc1)c1ccco1` (configuration not stated), the IC50 was > 66.7 µM (inactive) and the negative logarithm of the Ki (pKi) was < 4.39.
For `Cc1[nH]n2c(=O)c3c(nc2c1-c1ccc(Cl)cc1)CCC3`, the pKi was < 4.39.
Still for that read-out and setting: with `COc1ccccc1-c1c(C)oc2cc(OC(=O)c3ccco3)ccc2c1=O` the figure was < 4.39.
On to `CCOc1cc(C2C(C(=O)c3ccc(C)o3)=C(O)C(=O)N2CCc2ccccc2)ccc1O` (configuration not stated), for which the IC50 is > 66.7 µM (inactive) and the pKi is < 4.39.
The corresponding values for `COc1ccc(/C(O)=C2\C(=O)C(=O)N(Cc3ccco3)C2c2ccc(OC)cc2OC)cc1` (configuration not stated) are > 66.7 µM (inactive) and < 4.39.
The matching figures for `CC1Cc2cc(/C(O)=C3\C(=O)C(=O)N(CCN4CCOCC4)C3c3ccccc3F)ccc2O1` (configuration not stated): > 66.7 µM (inactive) and < 4.39.
Take `CCc1c(C)nc2c(C#N)c(C)[nH]n2c1=O`: the pKi is < 4.39.
Take `COc1ccc(CN(C(=O)c2ccccc2OC)C2CCS(=O)(=O)C2)cc1` (configuration not stated): the negative logarithm of the Ki (pKi) was < 4.39.
For `CC1(C)S[C@@H]2[C@H](NC(=O)C(C(=O)O)c3ccccc3)C(=O)N2[C@H]1C(=O)O` (some centres not stated), the pKi was < 4.39.
Consider `O=C1C(CCS(=O)c2ccccc2)C(=O)N(c2ccccc2)N1c1ccccc1` (configuration not stated), for which the IC50 is > 66.7 µM (inactive) and the pKi was < 4.39.
The corresponding values for `CCOc1ccc(C2C(C(=O)c3cccs3)=C(O)C(=O)N2CCCn2ccnc2)cc1` (configuration not stated) are > 66.7 µM (inactive) and < 4.39.
With `CN(C)c1nc(N(C)C)nc(N(C)C)n1`, the negative logarithm of the Ki (pKi) is < 4.39.
The same measure, in the same setting: the value for `CC1(C)S[C@@H]2[C@H](NC(=O)Cc3ccccc3)C(=O)N2[C@H]1C(=O)O` was < 4.39; that for `CCN(C(=O)Cc1c(C(=O)O)[nH]c2ccccc12)c1cc(OC)ccc1OC` was < 4.39.
Consider `CCCOc1ccc(C2C(C(=O)c3ccco3)=C(O)C(=O)N2CCCn2ccnc2)cc1` (configuration not stated), for which the IC50 is > 66.7 µM (inactive) and the pKi is < 4.39.
On to `COCCN1Cc2cccc(C(=O)NCc3ccc4c(c3)OCO4)c2C1=O`, for which the pKi is < 4.39.
Same read-out and setting: the value for `CCC(=O)Nc1c(C#N)c2nc3ccccc3nc2n1-c1ccccc1C` was < 4.39.
As for `COc1ccc(/C(O)=C2/C(=O)C(=O)N(c3nc(C)c(C)s3)C2c2ccco2)cc1` (configuration not stated), the IC50 was > 66.7 µM (inactive) and the negative logarithm of the Ki (pKi) is < 4.39.
In the case of `Cc1cc(SCC(N)=O)nc(SCC(=O)c2ccccc2)n1`, the pKi is < 4.39.
Same read-out and setting: the value for `Cc1[nH]n2c(=O)c(C#N)c(-c3ccccc3)nc2c1-c1ccccc1` was < 4.39; that for `Cc1[nH]n2c(=O)c3c(nc2c1-c1cccc2ccccc12)CCC3` was < 4.39; that for `C[N+]1(C)[C@@H]2CC(OC(=O)[C@H](CO)c3ccccc3)C[C@H]1[C@@H]1O[C@@H]12` (some centres not stated) was < 4.39.
Turning to `CCn1cc(C(=O)NC2CCC(C)CC2)c(=O)c2cc(S(=O)(=O)N3CCCCC3)ccc21` (configuration not stated), the pKi was < 4.39.
On the same count and under the same terms, the value for `Cc1ccc(Nc2nc(C3CC3)cs2)cc1` was < 4.39.
Consider `COCCCN1C(=O)C(=O)/C(=C(/O)c2ccc3c(c2)CC(C)O3)C1c1cccnc1` (configuration not stated), for which the IC50 was > 66.7 µM (inactive) and the pKi is < 4.39.
Turning to `O=S(=O)(c1cnc[nH]1)N1CCc2ccccc21`, the pKi is < 4.39.
As to `Cc1nc2c(C#N)c[nH]n2c(=O)c1Cc1ccccc1`, the pKi is < 4.39.
For the compound `COc1ccccc1C1/C(=C(/O)c2ccccc2)C(=O)C(=O)N1CC(C)C` (configuration not stated), the IC50 is > 66.7 µM (inactive) and the pKi is < 4.39.
Consider `COc1ccc(CCN2C(=O)C(O)=C(C(=O)c3ccco3)C2c2cccs2)cc1OC` (configuration not stated), for which the IC50 is > 66.7 µM (inactive) and the pKi was < 4.39.
The matching figures for `COc1ccccc1C1/C(=C(/O)c2ccccc2)C(=O)C(=O)N1CC(C)O` (configuration not stated): > 66.7 µM (inactive) and < 4.39.
The corresponding values for `COC(=O)c1[nH]c(C)c(/C(O)=C2\C(=O)C(=O)N(CCCN3CCOCC3)C2c2ccccn2)c1C` (configuration not stated) are > 66.7 µM (inactive) and < 4.39.
`CCOC(=O)N1CCN(c2cc(NCCC(=O)O)c3c4c(onc24)-c2ccccc2C3=O)CC1`: the pKi is 4.52.
On the same count and under the same terms, the value for `COc1cccc(-c2nc(CS(=O)(=O)CC(=O)NCCC(C)C)c(C)o2)c1` was < 4.39; that for `COc1ccc(CC(=O)Nc2ccc(-c3nnc(-c4ccc(C)cc4)o3)cc2)cc1` was < 4.39.
Compound `COc1ccc(-c2cn3cccnc3n2)cc1NC(=O)C1CC1` showed a negative-log Ki (pKi) of 5.34.
Take `Cc1ccc(/C(O)=C2/C(=O)C(=O)N(CCN3CCOCC3)C2c2cccnc2)cc1` (configuration not stated): the IC50 was > 66.7 µM (inactive) and the pKi was < 4.39.
For `O=C(C1=C(O)C(=O)N(Cc2ccccc2)C1c1ccncc1)c1ccco1` (configuration not stated), the IC50 was > 66.7 µM (inactive) and the pKi is < 4.39.
`CC(=O)OCCNc1cc(N2CCN(C)CC2)c2noc3c2c1C(=O)c1ccccc1-3`: the pKi was 5.38.
With `COc1ccc(C2C(C(=O)c3cccs3)=C(O)C(=O)N2c2nnc(C)s2)cc1OC` (configuration not stated), the IC50 was > 66.7 µM (inactive) and the pKi is < 4.39.
For `COc1ccc(-c2cc(C(F)(F)F)nc(NC3CCCC3)n2)cc1OC`, the pKi is < 4.39.
Regarding `C=CCOc1cccc(C2C(C(=O)c3ccco3)=C(O)C(=O)N2CCN2CCOCC2)c1` (configuration not stated), the IC50 is > 66.7 µM (inactive) and the negative logarithm of the Ki (pKi) was < 4.39.
The matching figures for `COCCCN1C(=O)C(=O)/C(=C(/O)c2ccc(OC)cc2C)C1c1cccnc1` (configuration not stated): > 66.7 µM (inactive) and < 4.39.
As for `Cc1nc2c(C)cccn2c1/C(O)=C1\C(=O)C(=O)N(CCN2CCOCC2)C1c1cccs1` (configuration not stated), the IC50 is > 66.7 µM (inactive) and the pKi is < 4.39.
In the case of `CCCCn1c(NC(C)=O)c(C#N)c2nc3ccccc3nc21`, the pKi is < 4.39.
On the same count and under the same terms, with `COc1ccccc1Oc1c(C)oc2c(CN(C)C)c(O)ccc2c1=O` the figure was < 4.39; with `CCC(CC)C(=O)Nc1c2cnn(-c3ccccc3)c2nc(=O)n1-c1ccccc1`, < 4.39; with `CCSc1nnc(NC(=O)CSc2nnc(Cc3cccn3C)n2CCc2ccccc2)s1`, < 4.39.
The same measure, in the same setting: the value for `O=C(Cn1cnc2c(cnn2-c2ccc(F)cc2)c1=O)OCc1ccccc1` was < 4.39.
Same read-out and setting: the value for `CN1C(=O)/C(=C2\SC(=S)N(C(CCC(=O)O)C(=O)O)C2=O)c2ccccc21` (configuration not stated) was < 4.39.
For `O=C(C1=C(O)C(=O)N(c2ncccn2)C1c1ccc(Cl)cc1)c1ccco1` (configuration not stated), the IC50 was > 66.7 µM (inactive) and the pKi was < 4.39.
As to `Cc1ccc(F)c(NC(=O)C2CCCCC2C(=O)O)c1` (configuration not stated), the pKi was < 4.39.
For `COc1ccc(-c2cc(C(F)(F)F)nc(N3CCN(c4ccccc4)CC3)n2)cc1OC`, the pKi was < 4.39.
The same measure, in the same setting: the value for `O=C(NCc1cccnc1)C1c2ccccc2C(=O)N1C1CCCCCC1` (configuration not stated) was < 4.39.
Regarding `COC(=O)[C@H](C(C)C)n1c(C)c(C(C)=O)c(C(C)=O)c1C`, the negative logarithm of the Ki (pKi) is < 4.39.
With `CCCOc1ccc(C2C(C(=O)c3ccc(C)o3)=C(O)C(=O)N2Cc2cccnc2)cc1` (configuration not stated), the IC50 was > 66.7 µM (inactive) and the pKi is < 4.39.
`C=CCn1c(SCCCC)nc(O)cc1=O`: the negative-log Ki (pKi) was < 4.39.
Same read-out and setting: the value for `Cc1cccc(Nc2ccccc2C(=O)NCc2ccco2)c1C` was < 4.39; that for `CCC(Sc1nc2c(c(=O)[nH]1)CCC2)C(=O)Nc1cccc(OC)c1` (configuration not stated) was < 4.39.
For the compound `COc1cc(C2/C(=C(\O)c3ccc4c(c3)CC(C)O4)C(=O)C(=O)N2CCCn2ccnc2)ccc1O` (configuration not stated), the IC50 was > 66.7 µM (inactive) and the pKi was < 4.39.
Regarding `COc1ccc(S(=O)(=O)NC(C)C(=O)Nc2cccc(C(C)=O)c2)cc1` (configuration not stated), the pKi was < 4.39.
Take `O=C(C1=C(O)C(=O)N(c2ncccn2)C1c1cccc(Cl)c1)c1ccco1` (configuration not stated): the IC50 is > 66.7 µM (inactive) and the pKi is < 4.39.
`COc1ccccc1-n1c(CNC(=O)c2ccco2)nnc1SCC(=O)Nc1ccc(F)cc1`: the pKi was < 4.39.
Same read-out and setting: with `CCOC(=O)Cc1cc(=O)n2[nH]c(C)c(-c3ccc(Cl)cc3)c2n1` the figure was < 4.39; with `CCOC(=O)c1c(NC(=O)c2cc(C3CC3)on2)sc2c1CCCC2`, < 4.39; with `Cc1[nH]n2c(=O)c3c(nc2c1-c1ccccc1)CCC3`, < 4.39.
Turning to `Cc1nc2c(C#N)c(C)[nH]n2c(=O)c1Cc1ccccc1`, the negative-log Ki (pKi) was < 4.39.
For the compound `COc1ccc(OC)c(C(=O)c2nc3c(n2O)CCCCC3)c1`, the negative-log Ki (pKi) is < 4.39.
For the compound `COc1cc2c3c(c1)/C(=C1/SC(NC(C)=O)=NC1=O)C(=O)N3C(C)(C)C=C2C`, the pKi was < 4.39.
The same measure, in the same setting: with `Cc1c(C(=O)NC2CCCc3ccccc32)oc2ccc(S(=O)(=O)N3CCOCC3)cc12` (configuration not stated) the figure was < 4.39.
In the case of `Cc1cc(N2C(=O)C(=O)/C(=C(/O)c3ccc(F)cc3)C2c2cccc(Br)c2)no1` (configuration not stated), the IC50 was > 66.7 µM (inactive) and the pKi was < 4.39.
On to `CCCS(=O)(=O)N1CCCC(C(=O)N2CCC(Cc3ccccc3)CC2)C1` (configuration not stated), for which the pKi was < 4.39.
On to `CCOC(=O)Cc1cc(=O)n2[nH]c(C)c(-c3ccc(OC)cc3)c2n1`, for which the pKi was < 4.39.
Same read-out and setting: with `CCOC(=O)c1c(NC(=O)C2C3CCC(O3)C2C(=O)O)sc(C)c1-c1ccc(C)cc1` (configuration not stated) the figure was < 4.39; with `COC(=O)COc1ccc2c(=O)c(Oc3ccccc3)c(C)oc2c1`, < 4.39.
As for `Cc1cc2oc(C(=O)NC3CCS(=O)(=O)C3)c(C)c2cc1C` (configuration not stated), the pKi was < 4.39.
The same measure, in the same setting: the value for `CN1CCN(CCCNC(=O)Nc2cccc3ccccc23)CC1` was < 4.39; that for `N[C@@H](Cc1ccc(O)c(I)c1)C(=O)O` was < 4.39.
Turning to `O=C(NC1CCCC1)C1CC1c1ccccc1` (configuration not stated), the pKi was < 4.39.
Still for that read-out and setting: with `COc1ccc(NC(=O)C(c2ccc(C)cc2)N(C)C(=O)c2cnccn2)cc1` (configuration not stated) the figure was < 4.39.
